Experimental data from patent US20230279025A1, “KRAS G12D INHIBITORS” (Mirati Therapeutics, Inc., priority 2020, published 2023).

Target: KRas G12D (Homo sapiens (Human), UniProt P01116, G12D)
Assay: KRas G12D Binding Assay (TR-FRET displacement of Cy5 labelled tracer)
Settings: GDP-loaded KRAS G12D (amino acids 1:169), 60 minute incubation at 22° C.
Protocol: After a 60 minute incubation at 22° C., the reaction was measured using a PerkinElmer EnVision multimode plate reader via TR-FRET dual wavelength detection, and the percent of control (POC) calculated using a ratiometric emission factor. […] The POC values were fit to a 4-parameter logistic curve and the IC50 value was determined as the concentration where the curve crosses 50 POC.
ND stands for “not determined.”

Chain of KRas G12D (P01116 other isoform, or with tags, fused parts or gaps G12D): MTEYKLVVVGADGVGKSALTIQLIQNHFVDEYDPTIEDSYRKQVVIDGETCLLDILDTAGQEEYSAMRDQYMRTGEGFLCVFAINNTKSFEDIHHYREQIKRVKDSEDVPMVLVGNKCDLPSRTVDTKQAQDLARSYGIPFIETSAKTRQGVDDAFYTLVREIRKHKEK

## CO[C@H]1CN2CCC[C@]2(COc2nc(N3CC4CCC(C3)N4)c3cnc(-c4cccc5cccc(Cl)c45)c(F)c3n2)C1 [Example 225, 4-((1R,5S)-3,8-diazabicyclo[3.2.1]octan-3-yl)-7-(8-chloronaphthalen-1-yl)-8-fluoro-2-((2-methoxytetrahydro-1H-pyrrolizin-7a(5H)-yl)methoxy)pyrido[4,3-d]pyrimidine bis-2,2,2-trifluoroacetate]
  IC50: 9.2 nM

## Cc1ccc2c(-c3ncc4c(N5C[C@H]6CC[C@@H](C5)N6)nc(OC[C@@H]5CCCN5C)nc4c3F)cccc2c1 [Example 207, 4-((1R,5S)-3,8-diazabicyclo[3.2.1]octan-3-yl)-8-fluoro-7-(6-methylnaphthalen-1-yl)-2-(((S)-1-methylpyrrolidin-2-yl)methoxy)pyrido[4,3-d]pyrimidine]
  IC50: 4910 nM

## Fc1c(-c2c(C(F)(F)F)ccc3[nH]ncc23)ncc2c(N3CC4CCC(C3)N4)nc(OCC34CCCN3C[C@H](F)C4)nc12 (mixture of isomers) [Example 343, 4-((1R,5S)-3,8-diazabicyclo[3.2.1]octan-3-yl)-8-fluoro-2-((2-fluorotetrahydro-1H-pyrrolizin-7a(5H)-yl)methoxy)-7-(5-(trifluoromethyl)-1H-indazol-4-yl)pyrido[4,3-d]pyrimidine (racemic, trans)]
  IC50: 10.4 nM

## CC(C)c1ncccc1-c1ncc2c(N3C[C@H]4CC[C@@H](C3)N4)nc(OCC34CCCN3CCC4)nc2c1F [Example 307, 4-((1R,5S)-3,8-diazabicyclo[3.2.1]octan-3-yl)-8-fluoro-2-((hexahydro-1H-pyrrolizin-7a-yl)methoxy)-7-(2-isopropylpyridin-3-yl)pyrido[4,3-d]pyrimidine]
  IC50: 3160 nM

## O=C1OCCN1C[C@H]1CC[C@@]2(COc3nc(N4CC5CCC(C4)N5)c4cnc(-c5cccc6cccc(Cl)c56)c(F)c4n3)CCCN12 [Example 442, 3-(((3R,7aR)-7a-(((4-(3,8-diazabicyclo[3.2.1]octan-3-yl)-7-(8-chloronaphthalen-1-yl)-8-fluoropyrido[4,3-d]pyrimidin-2-yl)oxy)methyl)hexahydro-1H-pyrrolizin-3-yl)methyl)oxazolidin-2-one]
  IC50: 25 nM

## CNC(=O)OC[C@H]1CC[C@@]2(COc3nc(N4CC5CCC(C4)N5)c4cnc(-c5cccc6cccc(Cl)c56)c(F)c4n3)CCCN12 [Example 408, (7a-(((4-(3,8-diazabicyclo[3.2.1]octan-3-yl)-7-(8-chloronaphthalen-1-yl)-8-fluoropyrido[4,3-d]pyrimidin-2-yl)oxy)methyl)hexahydro-1H-pyrrolizin-3-yl)methyl methylcarbamate]
  IC50: 3.1 nM

## Oc1cc(Cl)c(C2CC2)c(-c2ncc3c(N4C[C@H]5CC[C@@H](C4)N5)nc(OC[C@@]45CCCN4C[C@H](F)C5)nc3c2F)c1 [Example 283, 3-(4-((1R,5S)-3,8-diazabicyclo[3.2.1]octan-3-yl)-8-fluoro-2-(((2R,7aS)-2-fluorohexahydro-1H-pyrrolizin-7a-yl)methoxy)pyrido[4,3-d]pyrimidin-7-yl)-5-chloro-4-cyclopropylphenol]
  IC50: 0.7 nM

## Fc1c(-c2c(OC(F)(F)F)ccc3[nH]ncc23)ncc2c(N3C[C@H]4CC[C@@H](C3)N4)nc(OCC34CCCN3CCC4)nc12 [Example 258, 4-((1R,5S)-3,8-diazabicyclo[3.2.1]octan-3-yl)-8-fluoro-2-((hexahydro-1H-pyrrolizin-7a-yl)methoxy)-7-(5-(trifluoromethoxy)-1H-indazol-4-yl)pyrido[4,3-d]pyrimidine]
  IC50: 6.5 nM

## CN1CCC[C@H]1COc1nc(N2C[C@H]3CC[C@@H](C2)N3)c2cnc(-c3cccc4cccc(C#CCO)c34)c(F)c2n1 [Example 194, 3-(8-(4-((1R,5S)-3,8-diazabicyclo[3.2.1]octan-3-yl)-8-fluoro-2-(((S)-1-methylpyrrolidin-2-yl)methoxy)pyrido[4,3-d]pyrimidin-7-yl)naphthalen-1-yl)prop-2-yn-1-ol]
  IC50: 151 nM

## CC(C)c1c(Cl)cc(O)cc1-c1ncc2c(N3C[C@H]4CC[C@@H](C3)N4)nc(OC[C@@]34CCCN3C[C@H](F)C4)nc2c1F [Example 291, 3-(4-((1R,5S)-3,8-diazabicyclo[3.2.1]octan-3-yl)-8-fluoro-2-(((2R,7aS)-2-fluorohexahydro-1H-pyrrolizin-7a-yl)methoxy)pyrido[4,3-d]pyrimidin-7-yl)-5-chloro-4-isopropylphenol]
  IC50: 1.6 nM

## Oc1ccc(OC(F)(F)F)c(-c2ncc3c(N4CC5CCC(C4)N5)nc(OCC45CCCN4C[C@H](F)C5)nc3c2F)c1 (mixture of isomers) [Example 340, 3-(4-((1R,5S)-3,8-diazabicyclo[3.2.1]octan-3-yl)-8-fluoro-2-((2-fluorotetrahydro-1H-pyrrolizin-7a(5H)-yl)methoxy)pyrido[4,3-d]pyrimidin-7-yl)-4-(trifluoromethoxy)phenol (racemic, trans)]
  IC50: 0.4 nM

## NC(=O)Cc1cccc2cccc(-c3ncc4c(N5C[C@H]6CC[C@@H](C5)N6)nc(OCC56CCCN5CCC6)nc4c3F)c12 [Example 240, 2-(8-(4-((1R,5S)-3,8-diazabicyclo[3.2.1]octan-3-yl)-8-fluoro-2-((tetrahydro-1H-pyrrolizin-7a(5H)-yl)methoxy)pyrido[4,3-d]pyrimidin-7-yl)naphthalen-1-yl)acetamide]
  IC50: 315 nM

## CC(C)c1ccc(O)cc1-c1ncc2c(N3CC4CCC(C3)N4)nc(OC[C@@]34CCCN3C[C@H](F)C4)nc2c1F (stereo in doubt) [Example 399, 3-(4-((1R,5S)-3,8-diazabicyclo[3.2.1]octan-3-yl)-8-fluoro-2-((2-fluorotetrahydro-1H-pyrrolizin-7a(5H)-yl)methoxy)pyrido[4,3-d]pyrimidin-7-yl)-4-isopropylphenol]
  IC50: 2.7 nM

## Cc1ccc(O)cc1-c1ncc2c(N3C[C@H]4CC[C@@H](C3)N4)nc(OCC34CCCN3CCC4)nc2c1F [Example 256, 3-(4-((1R,5S)-3,8-diazabicyclo[3.2.1]octan-3-yl)-8-fluoro-2-((hexahydro-1H-pyrrolizin-7a-yl)methoxy)pyrido[4,3-d]pyrimidin-7-yl)-4-methylphenol]
  IC50: 13.2 nM

## COc1c(Cl)cccc1-c1ncc2c(N3C[C@H]4CC[C@@H](C3)N4)nc(OCC34CCCN3CCC4)nc2c1F [Example 311, 4-((1R,5S)-3,8-diazabicyclo[3.2.1]octan-3-yl)-7-(3-chloro-2-methoxyphenyl)-8-fluoro-2-((hexahydro-1H-pyrrolizin-7a-yl)methoxy)pyrido[4,3-d]pyrimidine]
  IC50: 135 nM

## Oc1cc(-c2ncc3c(N4CC5CCC(C4)N5)nc(OCCN4C[C@@H]5C[C@H]4CO5)nc3c2F)c2ccccc2c1 [Example 461, 4-(2-(2-((1S,4S)-2-oxa-5-azabicyclo[2.2.1]heptan-5-yl)ethoxy)-4-((1R,5S)-3,8-diazabicyclo[3.2.1]octan-3-yl)-8-fluoropyrido[4,3-d]pyrimidin-7-yl)naphthalen-2-ol]
  IC50: 0.062 nM

## CN(C)C(=O)NC[C@H]1CC[C@@]2(COc3nc(N4CC5CCC(C4)N5)c4cnc(-c5cccc6cccc(Cl)c56)c(F)c4n3)CCCN12 [Example 412, 3-((7a-(((4-(3,8-diazabicyclo[3.2.1]octan-3-yl)-7-(8-chloronaphthalen-1-yl)-8-fluoropyrido[4,3-d]pyrimidin-2-yl)oxy)methyl)hexahydro-1H-pyrrolizin-3-yl)methyl)-1,1-dimethylurea]
  IC50: 17.7 nM
